Assays:
Format in all cases: functional
CCRF-CEM = assay: Growth inhibition of human CCRF-CEM cells at 10^-5 M incubated for 48 hrs by sulforhodamine B assay; conditions: read-out: GI
K562 = assay: Growth inhibition of human K562 cells at 10^-5 M incubated for 48 hrs by sulforhodamine B assay; conditions: K562, 48 h, read-out: GI
A549 = assay: Growth inhibition of human A549/ATCC cells at 10^-5 M incubated for 48 hrs by sulforhodamine B assay; conditions: A549, 48 h, read-out: GI
EKVX = assay: Growth inhibition of human EKVX cells at 10^-5 M incubated for 48 hrs by sulforhodamine B assay; conditions: read-out: GI
HOP-92 = assay: Growth inhibition of human HOP92 cells at 10^-5 M incubated for 48 hrs by sulforhodamine B assay; conditions: HOP-92, 48 h, read-out: GI
NCI-H23 = assay: Growth inhibition of human NCI-H23 cells at 10^-5 M incubated for 48 hrs by sulforhodamine B assay; conditions: NCI-H23, 48 h, read-out: GI
NCI-H322M = assay: Growth inhibition of human NCI-H322M cells at 10^-5 M incubated for 48 hrs by sulforhodamine B assay; conditions: read-out: GI
NCI-H460 = assay: Growth inhibition of human NCI-H460 cells at 10^-5 M incubated for 48 hrs by sulforhodamine B assay; conditions: NCI-H460, 48 h, read-out: GI
NCI-H522 = assay: Growth inhibition of human NCI-H522 cells at 10^-5 M incubated for 48 hrs by sulforhodamine B assay; conditions: NCI-H522, 48 h, read-out: GI
COLO 205 = assay: Growth inhibition of human COLO205 cells at 10^-5 M incubated for 48 hrs by sulforhodamine B assay; conditions: COLO 205, 48 h, read-out: GI
HCT-116 = assay: Growth inhibition of human HCT116 cells at 10^-5 M incubated for 48 hrs by sulforhodamine B assay; conditions: HCT-116, 48 h, read-out: GI
HCT-15 = assay: Growth inhibition of human HCT15 cells at 10^-5 M incubated for 48 hrs by sulforhodamine B assay; conditions: HCT-15, 48 h, read-out: GI
KM12 = assay: Growth inhibition of human KM12 cells at 10^-5 M incubated for 48 hrs by sulforhodamine B assay; conditions: KM12, 48 h, read-out: GI
SW-620 = assay: Growth inhibition of human SW620 cells at 10^-5 M incubated for 48 hrs by sulforhodamine B assay; conditions: SW-620, 48 h, read-out: GI
SF-268 = assay: Growth inhibition of human SF268 cells at 10^-5 M incubated for 48 hrs by sulforhodamine B assay; conditions: SF-268, 48 h, read-out: GI
SF-295 = assay: Growth inhibition of human SF295 cells at 10^-5 M incubated for 48 hrs by sulforhodamine B assay; conditions: SF-295, 48 h, read-out: GI
SF-539 = assay: Growth inhibition of human SF539 cells at 10^-5 M incubated for 48 hrs by sulforhodamine B assay; conditions: SF-539, 48 h, read-out: GI
SNB-19 = assay: Growth inhibition of human SNB19 cells at 10^-5 M incubated for 48 hrs by sulforhodamine B assay; conditions: SNB-19, 48 h, read-out: GI
SNB-75 = assay: Growth inhibition of human SNB75 cells at 10^-5 M incubated for 48 hrs by sulforhodamine B assay; conditions: SNB-75, 48 h, read-out: GI
U-251 = assay: Growth inhibition of human U251 cells at 10^-5 M incubated for 48 hrs by sulforhodamine B assay; conditions: U-251, 48 h, read-out: GI
LOX IMVI = assay: Growth inhibition of human LOXIMVI cells at 10^-5 M incubated for 48 hrs by sulforhodamine B assay; conditions: read-out: GI
Malme-3M = assay: Growth inhibition of human MALME-3M cells at 10^-5 M incubated for 48 hrs by sulforhodamine B assay; conditions: read-out: GI
M14 = assay: Growth inhibition of human M14 cells at 10^-5 M incubated for 48 hrs by sulforhodamine B assay; conditions: M14, 48 h, read-out: GI
MDA-MB-435 = assay: Growth inhibition of human MDA-MB-435 cells at 10^-5 M incubated for 48 hrs by sulforhodamine B assay; conditions: MDA-MB-435, 48 h, read-out: GI
SK-MEL-2 = assay: Growth inhibition of human SK-MEL-2 cells at 10^-5 M incubated for 48 hrs by sulforhodamine B assay; conditions: SK-MEL-2, 48 h, read-out: GI
SK-MEL-5 = assay: Growth inhibition of human SK-MEL-5 cells at 10^-5 M incubated for 48 hrs by sulforhodamine B assay; conditions: SK-MEL-5, 48 h, read-out: GI
IGROV-1 = assay: Growth inhibition of human IGROV1 cells at 10^-5 M incubated for 48 hrs by sulforhodamine B assay; conditions: IGROV-1, 48 h, read-out: GI
OVCAR-3 = assay: Growth inhibition of human OVCAR3 cells at 10^-5 M incubated for 48 hrs by sulforhodamine B assay; conditions: OVCAR-3, 48 h, read-out: GI
OVCAR-4 = assay: Growth inhibition of human OVCAR4 cells at 10^-5 M incubated for 48 hrs by sulforhodamine B assay; conditions: OVCAR-4, 48 h, read-out: GI
OVCAR-8 = assay: Growth inhibition of human OVCAR8 cells at 10^-5 M incubated for 48 hrs by sulforhodamine B assay; conditions: OVCAR-8, 48 h, read-out: GI
NCI/ADR-RES = assay: Growth inhibition of human NCI/ADR-RES cells at 10^-5 M incubated for 48 hrs by sulforhodamine B assay; conditions: read-out: GI
SK-OV-3 = assay: Growth inhibition of human SKOV3 cells at 10^-5 M incubated for 48 hrs by sulforhodamine B assay; conditions: SK-OV-3, 48 h, read-out: GI
A498 = assay: Growth inhibition of human A498 cells at 10^-5 M incubated for 48 hrs by sulforhodamine B assay; conditions: A498, 48 h, read-out: GI
ACHN = assay: Growth inhibition of human ACHN cells at 10^-5 M incubated for 48 hrs by sulforhodamine B assay; conditions: read-out: GI
SN12C = assay: Growth inhibition of human SN12C cells at 10^-5 M incubated for 48 hrs by sulforhodamine B assay; conditions: read-out: GI
TK-10 = assay: Growth inhibition of human TK10 cells at 10^-5 M incubated for 48 hrs by sulforhodamine B assay; conditions: TK-10, 48 h, read-out: GI
PC-3 = assay: Growth inhibition of human PC3 cells at 10^-5 M incubated for 48 hrs by sulforhodamine B assay; conditions: PC-3, 48 h, read-out: GI
Hs-578T = assay: Growth inhibition of human Hs 578T cells at 10^-5 M incubated for 48 hrs by sulforhodamine B assay; conditions: read-out: GI
T47D = assay: Growth inhibition of human T47D cells at 10^-5 M incubated for 48 hrs by sulforhodamine B assay; conditions: read-out: GI

Compound	inhibition of growth at 10 µM (CCRF-CEM) [%]	inhibition of growth at 10 µM (K562) [%]	inhibition of growth at 10 µM (A549) [%]	inhibition of growth at 10 µM (EKVX) [%]	inhibition of growth at 10 µM (HOP-92) [%]	inhibition of growth at 10 µM (NCI-H23) [%]	inhibition of growth at 10 µM (NCI-H322M) [%]	inhibition of growth at 10 µM (NCI-H460) [%]	inhibition of growth at 10 µM (NCI-H522) [%]	inhibition of growth at 10 µM (COLO 205) [%]	inhibition of growth at 10 µM (HCT-116) [%]	inhibition of growth at 10 µM (HCT-15) [%]	inhibition of growth at 10 µM (KM12) [%]	inhibition of growth at 10 µM (SW-620) [%]	inhibition of growth at 10 µM (SF-268) [%]	inhibition of growth at 10 µM (SF-295) [%]	inhibition of growth at 10 µM (SF-539) [%]	inhibition of growth at 10 µM (SNB-19) [%]	inhibition of growth at 10 µM (SNB-75) [%]	inhibition of growth at 10 µM (U-251) [%]	other results
NC(=O)CSC1=Nc2c(sc3ccc(Cl)cc23)C(c2cccc([N+](=O)[O-])c2)N1 (stereo not drawn)	-22	2.53	-4.42	23.6	-21.6	4.2	3.97	19.3	6.5	-5.21	6.66	-3.38	-8.1	-4.82	-4.2	-2.8	0.81	-7.64	5.27	-1.2	inhibition of growth at 10 µM (LOX IMVI): 3.56%; inhibition of growth at 10 µM (Malme-3M): 3.6%; inhibition of growth at 10 µM (M14): -2.31%; inhibition of growth at 10 µM (MDA-MB-435): -11.3%; inhibition of growth at 10 µM (SK-MEL-2): -13%; inhibition of growth at 10 µM (SK-MEL-5): 4.8%; inhibition of growth at 10 µM (IGROV-1): 22%; inhibition of growth at 10 µM (OVCAR-3): -4.8%; inhibition of growth at 10 µM (OVCAR-4): -4.84%; inhibition of growth at 10 µM (OVCAR-8): -3.56%; inhibition of growth at 10 µM (NCI/ADR-RES): -4.88%; inhibition of growth at 10 µM (SK-OV-3): 4.62%; inhibition of growth at 10 µM (A498): 20.2%; inhibition of growth at 10 µM (ACHN): 8.24%; inhibition of growth at 10 µM (SN12C): 1.64%; inhibition of growth at 10 µM (TK-10): -16.6%; inhibition of growth at 10 µM (PC-3): 7.5%; inhibition of growth at 10 µM (Hs-578T): 1.5%; inhibition of growth at 10 µM (T47D): 23.9%
O=C1Nc2c(sc3ccc(Cl)cc23)C(c2cccc([N+](=O)[O-])c2)N1 (stereo not drawn)	-13.9	12.9	1.5	25.3	17.8	9.8	10.4	3.38	9.73	-1.33	5.37	-4.66	3.73	-3.52	6.35	1.41	8.46	5.92	22.8	6.51	inhibition of growth at 10 µM (LOX IMVI): 4.86%; inhibition of growth at 10 µM (Malme-3M): 16.6%; inhibition of growth at 10 µM (M14): 2.62%; inhibition of growth at 10 µM (MDA-MB-435): -2.51%; inhibition of growth at 10 µM (SK-MEL-2): 2.08%; inhibition of growth at 10 µM (SK-MEL-5): 2.85%; inhibition of growth at 10 µM (IGROV-1): 15.6%; inhibition of growth at 10 µM (OVCAR-3): -1.08%; inhibition of growth at 10 µM (OVCAR-4): 7.21%; inhibition of growth at 10 µM (OVCAR-8): 4.06%; inhibition of growth at 10 µM (NCI/ADR-RES): 6.5%; inhibition of growth at 10 µM (SK-OV-3): 3.88%; inhibition of growth at 10 µM (A498): 15.5%; inhibition of growth at 10 µM (ACHN): 9.21%; inhibition of growth at 10 µM (SN12C): 7.07%; inhibition of growth at 10 µM (TK-10): -4.8%; inhibition of growth at 10 µM (PC-3): 10.8%; inhibition of growth at 10 µM (Hs-578T): 3.78%; inhibition of growth at 10 µM (T47D): 16.3%

From ChEMBL document CHEMBL4414672, “Synthesis of certain benzothieno[3,2-d]pyrimidine derivatives as a selective SIRT2 inhibitors” (Eur J Med Chem, 2020)
